In one assay the target is EGFR (ErbB1) T790M L858R (Homo sapiens (Human), UniProt P00533, L858R/T790M). The experiment in a line: Z'-LYTE kinase inhibition assay, EGFR L858R/T790M. It counts as biochemical. As to conditions: for inhibition at 0.0137 µM: read-out: % inhibition against EGFR L858R/T790M (Compound at 0.0137 μM); for IC50: read-out: IC50 against EGFR L858R/T790M. Here is the method: Inhibitory activities of compounds against BTK, EGFR and EGFR mutants (EGFR L858R, EGFR T790M, EGFR L858R/T790M), FGFR1, FGFR2, JAK2, JAK3 and KDR were measured by Invitrogen using Z'-LYTE® Method as briefly described in the following. Test Compounds are screened in 1% DMSO (final) in the well. For 10 point titrations, 3-fold serial dilutions are conducted from the starting concentration. All ATP Solutions are diluted to a 4× working concentration in Kinase Buffer (50 mM HEPES pH 7.5, 0.01% BRIJ-35, 10 mM MgCl2, 1 mM EGTA). Peptide/Kinase Mixtures are diluted to a 2× working concentration in the appropriate Kinase Buffers as described below. (iv) Peptide/Kinase Mixtures for Measurement of EGFR (ErbB1) T790M L858R: The 2×EGFR (ErbB1) […] mixture is prepared in 50 mM HEPES pH 6.5, 0.01% BRIJ-35, 10 mM MgCl2, 1 mM EGTA, 0.02% NaN3. […] After the 1 hour Kinase Reaction incubation, 5 μL of a 1:64 dilution of Development Reagent B is added. Reaction starts by 30-second shaking of mixture consisting of 2.5 μL 4× test compound, […] 2× kinase reaction mixture and 2.5 μL 4×ATP Solution on Bar-coded Corning, low volume NBS, black 384-well plate (Corning Cat. #3676). Then the mixture is incubated for 60-minute at room temperature for the kinase reaction, followed by addition of 5 μL of a 1:1024 dilution of development reagent A and 30-second plate shake. The mixture is then incubated for another 60-minute at room temperature for development reaction. Finally fluorescence is read by plate reader. To determine IC50 of a compound against EGFR, EGFR mutant and other kinases, a series of concentrations of the compound were tested for the inhibition.

A further assay has as its system H1975 cells. The experiment in a line: Inhibition of cancer cell growth, MTT assay, H1975. Conditions: Homo sapiens, NCI-H1975, 72 h, read-out: IC50 in H1975 cells. Background: Formazan colour is commonly taken as a measure of viable cells.
A further assay concerns the target EGFR (ErbB1) (Homo sapiens (Human), UniProt P00533). Kind of assay: Z'-LYTE kinase inhibition assay, EGFR. As to conditions: read-out: % inhibition against EGFR (Compound at 0.041 μM). In kind it is biochemical. Here is the method:
Inhibitory activities of compounds against BTK, EGFR and EGFR mutants (EGFR L858R, EGFR T790M, EGFR L858R/T790M), FGFR1, FGFR2, JAK2, JAK3 and KDR were measured by Invitrogen using Z'-LYTE® Method as briefly described in the following. Test Compounds are screened in 1% DMSO (final) in the well. For 10 point titrations, 3-fold serial dilutions are conducted from the starting concentration. All ATP Solutions are diluted to a 4× working concentration in Kinase Buffer (50 mM HEPES pH 7.5, 0.01% BRIJ-35, 10 mM MgCl2, 1 mM EGTA). Peptide/Kinase Mixtures are diluted to a 2× working concentration in the appropriate Kinase Buffers as described below. (i) Peptide/Kinase Mixtures for Measurement of EGFR (ErbB1): The 2×EGFR (ErbB1)/[…] mixture is prepared in 50 mM HEPES pH 7.5, 0.01% BRIJ-35, 10 mM MgCl2. 4 mM MnCl2, 1 mM EGTA, 2 mM DTT. The final 10 μL Kinase Reaction consists of 1.1-5.25 ng EGFR (ErbB1) and 2 μM […] in 50 mM HEPES pH 7.5, 0.01% BRIJ-35, 10 mM MgCl2, 2 mM MnCl2. 1 mM EGTA, 1 mM DTT. After the 1 hour Kinase Reaction incubation, 5 μL of a 1:64 dilution of Development Reagent B is added. Reaction starts by 30-second shaking of mixture consisting of 2.5 μL 4× test compound, […] 2× kinase reaction mixture and 2.5 μL 4×ATP Solution on Bar-coded Corning, low volume NBS, black 384-well plate (Corning Cat. #3676). Then the mixture is incubated for 60-minute at room temperature for the kinase reaction, followed by addition of 5 μL of a 1:1024 dilution of development reagent A and 30-second plate shake. The mixture is then incubated for another 60-minute at room temperature for development reaction. Finally fluorescence is read by plate reader. To determine IC50 of a compound against EGFR, EGFR mutant and other kinases, a series of concentrations of the compound were tested for the inhibition.

Structures are written as SMILES. Bounds are passed on as bounds.

Chain of EGFR (ErbB1) T790M L858R (P00533 25-1210 T790M/L858R): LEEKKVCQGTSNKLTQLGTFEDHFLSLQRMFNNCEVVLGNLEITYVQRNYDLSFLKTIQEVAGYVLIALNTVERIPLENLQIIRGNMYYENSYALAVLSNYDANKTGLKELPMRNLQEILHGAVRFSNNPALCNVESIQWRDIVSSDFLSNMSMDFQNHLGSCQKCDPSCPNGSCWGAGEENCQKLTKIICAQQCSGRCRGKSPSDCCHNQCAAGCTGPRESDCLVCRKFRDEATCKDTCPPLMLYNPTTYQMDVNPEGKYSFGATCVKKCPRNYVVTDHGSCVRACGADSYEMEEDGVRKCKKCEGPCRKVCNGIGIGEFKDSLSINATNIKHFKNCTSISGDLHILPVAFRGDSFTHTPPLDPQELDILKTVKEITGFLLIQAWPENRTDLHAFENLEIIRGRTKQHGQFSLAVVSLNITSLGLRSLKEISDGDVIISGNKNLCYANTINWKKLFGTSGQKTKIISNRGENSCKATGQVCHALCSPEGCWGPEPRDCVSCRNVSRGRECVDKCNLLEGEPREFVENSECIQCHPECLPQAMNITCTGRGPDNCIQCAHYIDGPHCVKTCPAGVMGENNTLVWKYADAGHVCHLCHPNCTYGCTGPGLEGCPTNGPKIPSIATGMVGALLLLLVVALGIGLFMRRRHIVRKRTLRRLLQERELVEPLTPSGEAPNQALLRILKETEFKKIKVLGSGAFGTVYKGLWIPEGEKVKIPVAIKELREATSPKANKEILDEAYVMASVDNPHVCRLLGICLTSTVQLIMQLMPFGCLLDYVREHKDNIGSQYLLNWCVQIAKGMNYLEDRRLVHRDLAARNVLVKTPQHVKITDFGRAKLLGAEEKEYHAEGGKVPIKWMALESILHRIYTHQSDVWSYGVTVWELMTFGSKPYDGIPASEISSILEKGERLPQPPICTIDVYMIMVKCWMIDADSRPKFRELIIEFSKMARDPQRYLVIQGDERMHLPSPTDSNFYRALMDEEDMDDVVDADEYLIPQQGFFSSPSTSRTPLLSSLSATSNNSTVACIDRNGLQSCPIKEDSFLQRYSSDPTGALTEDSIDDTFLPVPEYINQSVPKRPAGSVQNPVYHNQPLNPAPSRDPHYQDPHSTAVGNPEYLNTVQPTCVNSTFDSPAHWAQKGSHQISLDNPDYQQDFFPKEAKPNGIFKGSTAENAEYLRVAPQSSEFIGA
Chain of EGFR (ErbB1) (P00533 25-1210): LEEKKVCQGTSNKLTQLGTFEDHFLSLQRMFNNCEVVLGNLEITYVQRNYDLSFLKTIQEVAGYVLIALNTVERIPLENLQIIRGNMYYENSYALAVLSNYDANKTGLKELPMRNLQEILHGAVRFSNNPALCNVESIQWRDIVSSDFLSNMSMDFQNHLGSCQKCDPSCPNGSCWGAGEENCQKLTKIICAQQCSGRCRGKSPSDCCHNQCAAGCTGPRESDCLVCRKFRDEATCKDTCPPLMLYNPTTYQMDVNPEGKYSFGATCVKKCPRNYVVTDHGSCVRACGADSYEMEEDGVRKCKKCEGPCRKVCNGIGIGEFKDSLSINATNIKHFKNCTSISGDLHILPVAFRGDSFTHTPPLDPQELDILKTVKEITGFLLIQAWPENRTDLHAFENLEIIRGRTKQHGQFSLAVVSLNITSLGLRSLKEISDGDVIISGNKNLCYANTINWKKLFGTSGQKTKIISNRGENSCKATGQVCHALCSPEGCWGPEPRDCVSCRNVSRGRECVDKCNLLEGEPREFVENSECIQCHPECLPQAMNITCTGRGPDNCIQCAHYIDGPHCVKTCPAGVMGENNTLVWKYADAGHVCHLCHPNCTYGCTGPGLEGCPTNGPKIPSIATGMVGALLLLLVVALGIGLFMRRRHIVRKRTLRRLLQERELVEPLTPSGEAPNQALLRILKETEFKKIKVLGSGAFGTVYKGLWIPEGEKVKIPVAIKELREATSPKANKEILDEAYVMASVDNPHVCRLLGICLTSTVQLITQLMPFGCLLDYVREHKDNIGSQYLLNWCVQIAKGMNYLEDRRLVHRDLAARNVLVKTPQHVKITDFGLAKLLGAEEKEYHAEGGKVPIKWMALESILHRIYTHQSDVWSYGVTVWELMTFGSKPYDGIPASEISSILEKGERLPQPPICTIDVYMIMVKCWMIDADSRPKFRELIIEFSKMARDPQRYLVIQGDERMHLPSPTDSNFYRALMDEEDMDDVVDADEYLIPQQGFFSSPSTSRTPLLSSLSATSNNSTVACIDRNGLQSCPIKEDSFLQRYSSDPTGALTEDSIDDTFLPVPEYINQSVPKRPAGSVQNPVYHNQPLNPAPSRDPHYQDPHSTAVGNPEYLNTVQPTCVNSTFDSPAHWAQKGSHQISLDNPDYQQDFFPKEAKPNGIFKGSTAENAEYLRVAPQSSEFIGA

Consider `C=CC(=O)Nc1cccc(-c2cccc3cnc(Nc4ccc(N5CCN(C)C(CO)C5)cc4)nc23)c1` (centres unmarked) [Example C077, N-(3-(2-((4-(3-(hydroxymethyl)-4-methylpiperazin-1-yl)phenyl)amino)quinazolin-8-yl)phenyl)acrylamide], for which, on EGFR (ErbB1) T790M L858R, the inhibition at 0.0137 µM was above 50% and the IC50 was below 0.1 µM. For the same compound, the IC50 in the assay with H1975 cells was below 0.1 µM. The inhibition at 0.041 µM at EGFR (ErbB1) was below 50%.

In the case of `C=CC(=O)Nc1cccc(-c2cccc3cnc(Nc4cnc(N5CCN(C)CC5)c(Cl)c4)nc23)c1` [Example C081, N-(3-(2-((5-chloro-6-(4-methylpiperazin-1-yl)pyridin-3-yl)amino)quinazolin-8-yl)phenyl)acrylamide], at EGFR (ErbB1) T790M L858R, the inhibition at 0.0137 µM was above 50% and the IC50 is below 0.1 µM. In the assay with H1975 cells, the IC50 is 0.1 to 0.5 µM. Moreover, the inhibition at 0.041 µM on EGFR (ErbB1) is below 50%.

Consider `C=CC(=O)Nc1cccc(-c2cccc3cnc(Nc4ccc(N5CCN(C(=O)CO)CC5)cc4)nc23)c1` [Example C082, N-(3-(2-((4-(4-(2-hydroxyacetyl)piperazin-1-yl)phenyl)amino)quinazolin-8-yl)phenyl)acrylamide], for which the inhibition at 0.0137 µM on EGFR (ErbB1) T790M L858R is above 50%. Further, the IC50 with H1975 cells was 0.1 to 0.5 µM. Further, on EGFR (ErbB1), the inhibition at 0.041 µM was below 50%.

As for `C=CC(=O)Nc1cccc(-c2cccc3cnc(Nc4ccc(N5CCN(C(=O)NC)CC5)cc4)nc23)c1` [Example C083, 4-(4-((8-(3-acrylamidophenyl)quinazolin-2-yl)amino)phenyl)-N-methylpiperazine-1-carboxamide], at EGFR (ErbB1) T790M L858R, the inhibition at 0.0137 µM is above 50%. Besides, the IC50 with H1975 cells lay in the range of 0.1 to 0.5 µM. The inhibition at 0.041 µM on EGFR (ErbB1) was below 50%.

Regarding `C=CC(=O)Nc1cccc(-c2cccc3cnc(Nc4ccc(N5CCN(C(=O)CC)CC5)cc4)nc23)c1` [Example C084, N-(3-(2-((4-(4-propionylpiperazin-1-yl)phenyl)amino)quinazolin-8-yl)phenyl)acrylamide], the inhibition at 0.0137 µM on EGFR (ErbB1) T790M L858R was above 50%. The IC50 in the assay with H1975 cells lay in the range of 0.1 to 0.5 µM. Besides, the inhibition at 0.041 µM on EGFR (ErbB1) was below 50%.

As for `C=CC(=O)Nc1cccc(-c2cccc3cnc(Nc4cnc(N5CCN(C)CC5)c(C#N)c4)nc23)c1` [Example C086, N-(3-(2-((5-cyano-6-(4-methylpiperazin-1-yl)pyridin-3-yl)amino)quinazolin-8-yl)phenyl)acrylamide], the inhibition at 0.0137 µM on EGFR (ErbB1) T790M L858R is above 50%. Further, the IC50 with H1975 cells lay within 0.1 to 0.5 µM. The inhibition at 0.041 µM at EGFR (ErbB1) was below 50%.

On to `C=CC(=O)Nc1cccc(-c2cccc3cnc(Nc4ccc(N5CCN(C)C(C(=O)OC)C5)cc4)nc23)c1` (centres unmarked) [Example C089, methyl 4-(4-((8-(3-acrylamidophenyl)quinazolin-2-yl)amino)phenyl)-1-methylpiperazine-2-carboxylate], for which the inhibition at 0.0137 µM at EGFR (ErbB1) T790M L858R was below 50%. For the same compound, the IC50 in the assay on H1975 cells fell in the range of 0.1 to 0.5 µM. The inhibition at 0.041 µM on EGFR (ErbB1) is below 50%.

Consider `C=CC(=O)Nc1cccc(-c2cccc3cnc(Nc4ccc(N5CCN(C)C(C(=O)O)C5)cc4)nc23)c1` (centres unmarked) [Example C090, 4-(4-((8-(3-acrylamidophenyl)quinazolin-2-yl)amino)phenyl)-1-methylpiperazine-2-carboxylic acid], for which, at EGFR (ErbB1) T790M L858R, the inhibition at 0.0137 µM was above 50%. Also, the IC50 in the assay with H1975 cells is 0.1 to 0.5 µM. For the same compound, the inhibition at 0.041 µM at EGFR (ErbB1) is below 50%.

Turning to `C=CC(=O)Nc1cccc(-c2cccc3cnc(Nc4ccc(N5CCN(S(C)(=O)=O)CC5)cc4)nc23)c1` [Example C092, N-(3-(2-((4-(4-(methylsulfonyl)piperazin-1-yl)phenyl)amino)quinazolin-8-yl)phenyl)acrylamide], the inhibition at 0.0137 µM on EGFR (ErbB1) T790M L858R was below 50%. Also, the IC50 in the assay with H1975 cells lay within 0.1 to 0.5 µM. For the same compound, the inhibition at 0.041 µM at EGFR (ErbB1) is below 50%.

For `C=CC(=O)Nc1cccc(-c2cccc3cnc(Nc4ccc(N5CCN(C)C(C(N)=O)C5)cc4)nc23)c1` (centres unmarked) [Example C093, 4-(4-((8-(3-acrylamidophenyl)quinazolin-2-yl)amino)phenyl)-1-methylpiperazine-2-carboxamide], the inhibition at 0.0137 µM at EGFR (ErbB1) T790M L858R is above 50%. The IC50 in the assay with H1975 cells is 0.1 to 0.5 µM. Also, on EGFR (ErbB1), the inhibition at 0.041 µM is below 50%.

The record behind these values is patent US10172868B2, “Substituted quinazolines for inhibiting kinase activity” (NeuPharma, Inc., priority 2013, dated 2019).
